Measured values taken from US20250230171A1 (MOMA Therapeutics, Inc., priority 2023, published 2025).
Like-named read-outs stand apart in the source and are kept apart here.

Tests used:
[1] = target: biotinylated Avi-POLθ[2-894] (Homo sapiens (Human), UniProt O75417); test: POLθ ATPase assay (ADP-Glo); conditions: POLθ ATPase, ADP-Glo; n=2; read-out: Biochemical ATPase ADPGlo IC50
DLD1 BRCA2 (−/−) cells = test: 7-day cell viability assay (CellTiter-Glo), DLD1 BRCA2 (−/−); format: cell-based, human; conditions: 7-day CellTiter-Glo, n=2, read-out: Viability IC50 (uM) DLD1 BRCA2 null
How it was run: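 7-day growth assay in DLD1 cells with or without BRCA2; seeding densities chosen to keep log-linear growth. Compound: 10 uM top, 3-fold, 9 points. Endpoint: CTG ATP luminescence at RT.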

DLD1 WT cells = test: 7-day cell viability assay (CellTiter-Glo), DLD1 parental (WT); format: cell-based, human; conditions: 7-day CellTiter-Glo, n=2

biotinylated Avi-POLθ[2-894], sequence (O75417 2-894): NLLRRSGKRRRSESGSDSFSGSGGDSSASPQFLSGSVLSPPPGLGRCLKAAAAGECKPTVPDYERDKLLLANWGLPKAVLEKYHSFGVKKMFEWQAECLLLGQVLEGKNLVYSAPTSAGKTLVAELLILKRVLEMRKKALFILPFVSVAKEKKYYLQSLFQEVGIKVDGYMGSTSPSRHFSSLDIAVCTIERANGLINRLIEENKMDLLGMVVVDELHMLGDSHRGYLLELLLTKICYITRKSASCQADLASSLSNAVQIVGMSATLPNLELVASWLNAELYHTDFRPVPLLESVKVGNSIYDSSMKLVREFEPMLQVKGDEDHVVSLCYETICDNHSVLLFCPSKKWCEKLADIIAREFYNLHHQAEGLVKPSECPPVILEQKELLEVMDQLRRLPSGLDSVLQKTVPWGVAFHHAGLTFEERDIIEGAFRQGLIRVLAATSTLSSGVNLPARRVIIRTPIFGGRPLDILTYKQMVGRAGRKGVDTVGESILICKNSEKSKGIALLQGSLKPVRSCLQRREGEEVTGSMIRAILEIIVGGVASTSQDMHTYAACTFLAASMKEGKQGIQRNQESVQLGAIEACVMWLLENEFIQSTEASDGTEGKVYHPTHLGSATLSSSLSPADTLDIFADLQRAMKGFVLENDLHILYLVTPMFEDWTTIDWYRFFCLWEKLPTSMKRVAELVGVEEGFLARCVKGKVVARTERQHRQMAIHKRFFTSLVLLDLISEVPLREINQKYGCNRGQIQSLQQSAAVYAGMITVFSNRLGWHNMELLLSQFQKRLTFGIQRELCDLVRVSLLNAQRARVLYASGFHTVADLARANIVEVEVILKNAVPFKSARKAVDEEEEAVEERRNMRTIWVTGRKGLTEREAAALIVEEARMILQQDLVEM

IC50 [1] | IC50 (DLD1 BRCA2 (−/−) cells; Homo sapiens, DLD-1, 168 h) | IC50 (DLD1 BRCA2 (−/−) cells) | Compound | IC50 (DLD1 WT cells; Homo sapiens, DLD-1, 168 h) | IC50 (DLD1 WT cells)
1 to 15 nM | 0.001 to 0.1 µM | – | COc1nc(OC)c(-c2cc(C)ncc2C(=O)Nc2nc3c(s2)CN(C(=O)c2ccc(C(F)(F)F)nc2OC)C3)cc1Cl [Example 1036, 5-chloro-2,6-dimethoxy-N-(5-(2-methoxy-6-(trifluoromethyl)nicotinoyl)-5,6-dihydro-4H-pyrrolo[3,4-d]thiazol-2-yl)-6′-methyl-[3,4′-bipyridine]-3′-carboxamide] | ≥ 10 µM | –
1 to 15 nM | 0.001 to 0.1 µM | – | COc1cnc(Cl)cc1-c1cc(C)ncc1C(=O)Nc1nc2c(s1)C(C)N(C(=O)c1ccc(C(F)(F)F)nc1OC)C2 (stereo not drawn) [Example 1040, 2′-chloro-5′-methoxy-N-(S-(2-methoxy-6-(trifluoromethyl)nicotinoyl)-6-methyl-5,6-dihydro-4H-pyrrolo[3,4-d]thiazol-2-yl)-6-methyl-[4,4′-bipyridine]-3-carboxamide] | ≥ 10 µM | –
1 to 15 nM | 0.001 to 0.1 µM | – | COc1cnc(C(F)F)nc1-c1cc(C)ncc1C(=O)Nc1nc2c(s1)CN(C(=O)c1ccc(C(F)(F)F)nc1OC)C2 [Example 1042, 4-(2-(difluoromethyl)-5-methoxypyrimidin-4-yl)-N-(5-(2-methoxy-6-(trifluoromethyl)nicotinoyl)-5,6-dihydro-4H-pyrrolo[3,4-d]thiazol-2-yl)-6-methylnicotinamide] | ≥ 10 µM | –
1 to 15 nM | – | 0.001 to 0.1 µM | N-(5-(2-Chloro-5-(difluoromethyl)benzoyl)-5,6-dihydro-4H-pyrrolo[3,4-d]thiazol-2-yl)-4-(5-cyano-2-methoxyphenyl)-6-methylnicotinamide [Example 489] | – | 5 to 10 µM
1 to 15 nM | – | 0.001 to 0.1 µM | N-(5-(4-Chloro-2-methoxybenzoyl)-5,6-dihydro-4H-pyrrolo[3,4-d]thiazol-2-yl)-4-(5-cyano-2-methoxyphenyl)-6-methylnicotinamide [Example 437] | – | ≥ 10 µM
